The nature of one experiment: cells. It is filed as functional.
A short description of experiment [1]: THP-1 cell cytotoxicity, dose response, cytotoxicity control for non-replicating M. tuberculosis project (AID 489025). It is filed as functional.
For experiment [2], the target named is T1, Cytochrome P450 3A4 (Homo sapiens, UniProt P08684). To be noted: Potency.
For experiment [3], the target named is T2, Ubiquitin-conjugating enzyme E2 N (Homo sapiens, UniProt P61088).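 Note: Dose-response confirmation in a TR-FRET assay detecting UBC13-driven polyubiquitin chain formation, inhibition measured.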
T2 sequence (P61088 whole entry): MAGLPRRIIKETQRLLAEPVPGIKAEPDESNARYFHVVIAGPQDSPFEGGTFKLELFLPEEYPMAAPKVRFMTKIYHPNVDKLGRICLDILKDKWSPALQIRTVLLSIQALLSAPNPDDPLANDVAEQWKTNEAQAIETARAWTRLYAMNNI
It is filed as functional.

For experiment [4], the target named is T3, High affinity choline transporter 1 (Homo sapiens, UniProt Q9GZV3).
T3 sequence (Q9GZV3 whole entry): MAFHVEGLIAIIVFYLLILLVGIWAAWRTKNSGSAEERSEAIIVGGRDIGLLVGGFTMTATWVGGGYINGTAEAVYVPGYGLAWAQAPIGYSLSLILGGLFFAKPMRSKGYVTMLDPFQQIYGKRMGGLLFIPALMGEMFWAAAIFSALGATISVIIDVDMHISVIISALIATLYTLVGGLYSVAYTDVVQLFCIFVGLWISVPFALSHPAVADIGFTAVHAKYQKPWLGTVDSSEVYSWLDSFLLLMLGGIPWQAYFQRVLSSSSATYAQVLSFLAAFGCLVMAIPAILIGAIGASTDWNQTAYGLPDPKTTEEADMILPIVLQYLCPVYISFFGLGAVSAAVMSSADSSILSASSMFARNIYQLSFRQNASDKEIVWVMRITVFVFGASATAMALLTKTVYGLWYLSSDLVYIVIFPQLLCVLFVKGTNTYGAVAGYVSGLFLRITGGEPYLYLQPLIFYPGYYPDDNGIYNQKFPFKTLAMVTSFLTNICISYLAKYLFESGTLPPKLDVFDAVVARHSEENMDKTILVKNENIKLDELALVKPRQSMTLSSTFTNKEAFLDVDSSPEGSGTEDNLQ
As to the kind of experiment: human choline transporter blockers, potency – cell-based, 5-point CRC, membrane potential dye, dose response (AID 504840). It is filed as functional.

In a further experiment the target is Genome polyprotein (dengue virus type 2, UniProt P29990). Nature of the experiment: flavivirus cap methylation enzyme inhibition – biochemical, confirmation dose response, primary screen (AID 588689). It is filed as functional.
A further experiment has as its system Streptococcus. Nature of the experiment: GAS UMAA2166 growth inhibition – luminescence, BacTiterGlo, counter-screen for streptokinase expression inhibitor project, dose response (AID 1915).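 Note: potency for reduction of bacterial viability or growth.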 It is filed as functional, organism-based. For orientation: Counterscreens check selectivity or assay interference.
For experiment [5], the system named is Streptococcus sp. 'group A'. Nature of the experiment: Streptococcus pyogenes SK(-)GAS viability under kanamycin – luminescence, BacTiterGlo, confirmation, counter-screen for streptokinase expression inhibitor project, dose response (AID 1900). It is filed as functional, organism-based.
The target in the next experiment is T4, Aminopeptidase N (Plasmodium falciparum FcB1/Columbia, UniProt O96935).
T4 sequence (O96935 whole entry): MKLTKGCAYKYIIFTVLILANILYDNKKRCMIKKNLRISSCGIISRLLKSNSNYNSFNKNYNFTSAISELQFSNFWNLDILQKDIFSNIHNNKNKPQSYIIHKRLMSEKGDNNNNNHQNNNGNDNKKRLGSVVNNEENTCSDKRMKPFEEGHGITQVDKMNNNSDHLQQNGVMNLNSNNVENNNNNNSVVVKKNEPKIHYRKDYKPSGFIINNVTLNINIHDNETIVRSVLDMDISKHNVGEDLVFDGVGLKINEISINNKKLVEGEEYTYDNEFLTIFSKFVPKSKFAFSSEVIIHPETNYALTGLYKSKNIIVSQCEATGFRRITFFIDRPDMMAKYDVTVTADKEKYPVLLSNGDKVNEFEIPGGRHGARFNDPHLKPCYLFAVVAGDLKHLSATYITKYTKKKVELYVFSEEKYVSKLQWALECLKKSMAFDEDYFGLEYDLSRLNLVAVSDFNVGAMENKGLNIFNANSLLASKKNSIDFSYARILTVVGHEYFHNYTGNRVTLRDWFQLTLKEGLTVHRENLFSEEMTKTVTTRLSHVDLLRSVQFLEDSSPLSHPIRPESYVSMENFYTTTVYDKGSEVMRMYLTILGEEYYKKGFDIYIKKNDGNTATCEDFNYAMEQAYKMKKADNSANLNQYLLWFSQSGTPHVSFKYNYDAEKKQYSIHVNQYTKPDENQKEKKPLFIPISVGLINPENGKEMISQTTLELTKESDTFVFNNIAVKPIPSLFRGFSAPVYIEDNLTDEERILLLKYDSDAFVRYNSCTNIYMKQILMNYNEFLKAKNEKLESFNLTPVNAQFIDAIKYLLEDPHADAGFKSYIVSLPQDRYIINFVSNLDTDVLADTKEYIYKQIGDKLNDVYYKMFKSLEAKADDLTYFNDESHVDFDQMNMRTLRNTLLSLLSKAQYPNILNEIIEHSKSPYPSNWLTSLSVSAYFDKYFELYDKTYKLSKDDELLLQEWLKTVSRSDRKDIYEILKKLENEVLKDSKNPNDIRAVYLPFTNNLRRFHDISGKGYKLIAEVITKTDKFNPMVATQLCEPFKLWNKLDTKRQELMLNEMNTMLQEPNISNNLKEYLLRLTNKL
As to the kind of experiment: malaria alanyl aminopeptidase activity blockers – biochemical, fluorogenic H-Leu-NHMec substrate, 1536-well (AID 1445). On the set-up: species or system Plasmodium falciparum 3D7, 3D7.

In the next experiment the target is T5, Streptokinase A (Streptococcus pyogenes serotype M1, UniProt P10520).
T5 sequence (P10520 whole entry): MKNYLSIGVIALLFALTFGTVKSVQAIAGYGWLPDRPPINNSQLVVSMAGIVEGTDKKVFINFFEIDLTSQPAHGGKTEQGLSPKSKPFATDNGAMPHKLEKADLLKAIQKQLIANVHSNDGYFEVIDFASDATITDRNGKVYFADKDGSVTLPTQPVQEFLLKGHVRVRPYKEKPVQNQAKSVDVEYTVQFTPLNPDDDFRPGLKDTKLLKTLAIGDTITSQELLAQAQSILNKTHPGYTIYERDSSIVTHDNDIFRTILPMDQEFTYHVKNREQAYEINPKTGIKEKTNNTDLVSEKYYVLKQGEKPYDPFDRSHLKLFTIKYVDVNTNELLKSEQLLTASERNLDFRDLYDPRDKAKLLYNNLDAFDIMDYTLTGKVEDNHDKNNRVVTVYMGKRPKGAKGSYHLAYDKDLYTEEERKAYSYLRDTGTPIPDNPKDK
As to the kind of experiment: viability-normalized secreted streptokinase activity reduction – plasminogen activation absorbance, OD405, dose response (AID 1914).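 Note: secreted streptokinase activity via plasminogen activation per viability signal from cell pellet.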 It is filed as functional, Streptococcus pyogenes M1 GAS.

Experiment [6] in a line: HEK-293T cell viability reduction – luminescence, B-cell screen hits, cytotoxicity control for BCR NF-kB inhibitor project, dose response (AID 489021).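 Note: HEK-293T cells carrying an NF-kB luciferase reporter; cells exposed to compound for about 14 hours before viability readout.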 It is filed as functional, cell-based.
For experiment [7], the target named is Glucose-6-phosphate 1-dehydrogenase (Homo sapiens, UniProt P11413). As to the kind of experiment: inhibition of Homo sapiens G6PD, dose series – biochemical, fluorescence, selectivity assay for P. falciparum G6PD inhibitor project, dose response (AID 504792). It is filed as functional.
The target of experiment [8] is T6, RNA-binding protein pos-1 (Caenorhabditis elegans, UniProt G5EF15).
T6 sequence (G5EF15 whole entry): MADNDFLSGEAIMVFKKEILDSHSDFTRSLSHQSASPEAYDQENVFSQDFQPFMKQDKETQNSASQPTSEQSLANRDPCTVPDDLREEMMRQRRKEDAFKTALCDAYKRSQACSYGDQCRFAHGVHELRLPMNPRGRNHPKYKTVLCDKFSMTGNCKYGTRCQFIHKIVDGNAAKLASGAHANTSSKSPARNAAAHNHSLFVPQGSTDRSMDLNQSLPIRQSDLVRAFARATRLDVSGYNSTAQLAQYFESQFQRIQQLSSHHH
As to the kind of experiment: disruptors of C. elegans POS-1 RNA interaction – biochemical, fluorescence polarization, dose response (AID 1964).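 Note: purified POS-1 fused to maltose binding protein made in E. coli; potency of compounds blocking POS-1 binding to fluorescent RNA.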

The target in experiment [9] is T1, Cytochrome P450 3A4.
Experiment [10] concerns the target T7, Zinc finger protein mex-5 (Caenorhabditis elegans, UniProt Q9XUB2).
T7 sequence (Q9XUB2 whole entry): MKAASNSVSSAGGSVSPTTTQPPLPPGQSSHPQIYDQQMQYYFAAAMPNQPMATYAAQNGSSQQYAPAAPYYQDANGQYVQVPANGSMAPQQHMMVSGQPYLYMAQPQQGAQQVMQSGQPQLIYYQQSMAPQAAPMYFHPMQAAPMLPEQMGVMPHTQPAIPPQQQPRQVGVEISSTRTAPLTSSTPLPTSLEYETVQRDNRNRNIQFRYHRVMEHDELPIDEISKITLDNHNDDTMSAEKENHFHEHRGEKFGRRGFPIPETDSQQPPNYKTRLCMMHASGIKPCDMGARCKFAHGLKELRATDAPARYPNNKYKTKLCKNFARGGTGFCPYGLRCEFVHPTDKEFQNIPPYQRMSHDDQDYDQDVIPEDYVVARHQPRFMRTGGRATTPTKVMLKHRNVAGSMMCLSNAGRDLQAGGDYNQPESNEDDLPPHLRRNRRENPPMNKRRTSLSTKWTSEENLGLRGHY
As to the kind of experiment: potency of MEX-5 RNA-binding blockers – biochemical, C. elegans, fluorescence polarization, dose response (AID 1960). (Polarisation of emitted light reports the rotation of a fluorescent probe.)

The next experiment deals with Large T antigen (Simian virus 40, UniProt P03070). It is filed as functional, Betapolyomavirus macacae.

Molecules are shown by their SMILES. Calls of active or inactive are those of the source.

This note sets out measurements from ChEMBL document CHEMBL1201862, “PubChem BioAssay data set” (2004).

Chain of Genome polyprotein (P29990 2492-3391 limits assumed): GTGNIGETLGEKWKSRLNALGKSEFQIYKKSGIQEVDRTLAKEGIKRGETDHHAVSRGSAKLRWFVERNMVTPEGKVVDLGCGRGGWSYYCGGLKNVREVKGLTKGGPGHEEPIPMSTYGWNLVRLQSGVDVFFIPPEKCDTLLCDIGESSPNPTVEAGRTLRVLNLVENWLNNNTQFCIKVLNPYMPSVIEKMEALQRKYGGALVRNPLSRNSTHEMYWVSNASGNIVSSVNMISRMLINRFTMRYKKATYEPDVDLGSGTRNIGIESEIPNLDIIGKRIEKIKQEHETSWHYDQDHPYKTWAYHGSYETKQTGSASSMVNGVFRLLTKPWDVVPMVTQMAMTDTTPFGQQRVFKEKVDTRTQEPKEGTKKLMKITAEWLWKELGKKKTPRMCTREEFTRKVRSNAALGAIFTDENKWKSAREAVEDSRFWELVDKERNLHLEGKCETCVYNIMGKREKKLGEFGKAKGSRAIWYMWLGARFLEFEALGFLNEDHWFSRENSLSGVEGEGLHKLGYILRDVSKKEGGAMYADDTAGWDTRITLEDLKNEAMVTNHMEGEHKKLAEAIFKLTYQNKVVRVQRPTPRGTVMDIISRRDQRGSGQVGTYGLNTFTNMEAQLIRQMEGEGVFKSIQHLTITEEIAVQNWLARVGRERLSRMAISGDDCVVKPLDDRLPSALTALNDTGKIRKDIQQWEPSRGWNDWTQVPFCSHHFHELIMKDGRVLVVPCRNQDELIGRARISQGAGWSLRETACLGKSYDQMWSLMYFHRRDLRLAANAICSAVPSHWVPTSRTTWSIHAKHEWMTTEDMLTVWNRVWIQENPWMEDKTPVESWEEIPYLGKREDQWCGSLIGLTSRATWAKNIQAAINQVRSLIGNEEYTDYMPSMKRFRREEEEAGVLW
T1 sequence (P08684 whole entry): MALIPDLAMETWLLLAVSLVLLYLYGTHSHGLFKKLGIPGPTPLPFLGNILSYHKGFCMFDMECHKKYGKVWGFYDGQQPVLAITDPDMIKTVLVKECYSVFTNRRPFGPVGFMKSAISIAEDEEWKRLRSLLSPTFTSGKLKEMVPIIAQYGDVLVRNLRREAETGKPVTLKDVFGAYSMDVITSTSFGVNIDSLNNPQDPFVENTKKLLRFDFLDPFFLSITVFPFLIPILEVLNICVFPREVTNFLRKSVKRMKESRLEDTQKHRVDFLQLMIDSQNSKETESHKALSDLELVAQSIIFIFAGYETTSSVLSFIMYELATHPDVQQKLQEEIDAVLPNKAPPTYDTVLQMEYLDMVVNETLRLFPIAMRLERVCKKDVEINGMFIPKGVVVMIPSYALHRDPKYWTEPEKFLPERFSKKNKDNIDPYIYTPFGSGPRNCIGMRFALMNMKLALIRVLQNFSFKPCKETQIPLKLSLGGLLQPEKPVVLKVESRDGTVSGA
Chain of Large T antigen (P03070 whole entry): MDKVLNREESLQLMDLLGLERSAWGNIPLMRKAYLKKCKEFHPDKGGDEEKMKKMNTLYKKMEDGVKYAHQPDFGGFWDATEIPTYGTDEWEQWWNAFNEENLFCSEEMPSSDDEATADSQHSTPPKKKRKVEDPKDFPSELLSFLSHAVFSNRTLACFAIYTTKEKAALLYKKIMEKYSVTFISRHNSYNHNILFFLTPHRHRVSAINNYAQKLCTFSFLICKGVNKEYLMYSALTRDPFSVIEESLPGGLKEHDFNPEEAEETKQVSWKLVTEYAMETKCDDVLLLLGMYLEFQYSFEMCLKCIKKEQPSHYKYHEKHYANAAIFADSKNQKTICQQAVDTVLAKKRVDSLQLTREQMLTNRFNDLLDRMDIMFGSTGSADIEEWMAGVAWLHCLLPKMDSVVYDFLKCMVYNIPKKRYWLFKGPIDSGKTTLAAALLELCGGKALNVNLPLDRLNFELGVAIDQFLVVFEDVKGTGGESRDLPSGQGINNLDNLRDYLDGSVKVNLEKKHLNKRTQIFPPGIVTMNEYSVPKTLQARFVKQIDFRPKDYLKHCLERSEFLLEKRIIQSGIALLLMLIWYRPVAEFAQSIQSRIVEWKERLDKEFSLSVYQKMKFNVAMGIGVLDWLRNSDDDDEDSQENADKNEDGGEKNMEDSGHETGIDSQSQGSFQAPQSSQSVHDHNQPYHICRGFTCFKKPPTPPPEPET
Chain of Glucose-6-phosphate 1-dehydrogenase (P11413 whole entry): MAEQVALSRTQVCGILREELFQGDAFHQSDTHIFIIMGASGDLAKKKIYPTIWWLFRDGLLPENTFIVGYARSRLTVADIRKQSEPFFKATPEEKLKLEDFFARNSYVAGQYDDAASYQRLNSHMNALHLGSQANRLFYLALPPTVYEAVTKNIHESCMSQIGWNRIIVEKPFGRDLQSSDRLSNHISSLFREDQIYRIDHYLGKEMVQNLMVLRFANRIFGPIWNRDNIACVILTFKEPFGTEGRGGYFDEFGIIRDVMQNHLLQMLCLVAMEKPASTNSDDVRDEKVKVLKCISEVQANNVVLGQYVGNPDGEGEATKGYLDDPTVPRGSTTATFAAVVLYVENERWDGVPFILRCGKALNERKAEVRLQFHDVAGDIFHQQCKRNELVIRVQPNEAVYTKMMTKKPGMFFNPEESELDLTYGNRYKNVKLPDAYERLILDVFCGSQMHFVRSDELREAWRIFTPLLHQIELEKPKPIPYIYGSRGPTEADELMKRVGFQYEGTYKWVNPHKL

Regarding `Cc1nc(C)c(/C(O)=C/c2nc3ccccc3oc2=O)s1`, the 50% inhibitory concentration (IC50) (in general, the concentration that inhibits the measured activity by half) in the experiment “cells” is 3.09 µM (active). Also, the CC50 (usually the concentration giving 50% cytotoxicity) in experiment [1] was > 40 µM (active).
Consider `Cc1ncc(CN2CC=C(c3ccccc3)CC2)c(N)n1`, for which the AC50 (commonly the midpoint of the concentration-response curve, whichever way the signal moves) on Cytochrome P450 3A4 [2] was 25.1 µM (inconclusive).
Turning to `Cc1cc(C)cc(N(C(=O)c2snc(C(N)=O)c2N)C(C(=O)NCC2CCCO2)c2ccc(C)o2)c1` (configuration not stated), the IC50 in experiment [3] is > 20 µM (inactive).
`CCn1c(SCc2nc(-c3ccc(OC)c(OC)c3)no2)nnc1-c1cccs1`: in [4], the IC50 was 11.2 µM (active).
Take `COC(=O)COc1ccc(-c2ccc(F)cc2)cc1C=O`: the IC50 in “cells” is 3.51 µM (active).
Consider `O=C1NN(c2ccccc2)C(=O)/C1=C\c1ccccc1OCC(=O)N1CCOCC1`, for which the IC50 at Genome polyprotein is > 100 µM (active).
Turning to `NS(=O)(=O)c1ccc(N2N=C(c3ccccc3)CC2c2ccc(F)cc2)cc1` (configuration not stated), the EC50 (as a rule, the concentration giving half of the maximal effect) is 18.7 µM (active) in the experiment with Streptococcus, 6.96 µM (active) in experiment [5] and 55.2 µM (active) at Streptokinase A. In addition, the IC50 at Aminopeptidase N is 62 µM (active).
On to `CCCc1nc2sc3c(c2c(=O)n1NC(=O)c1ccco1)CC(C)(C)OC3`, for which the IC50 on Aminopeptidase N was 36.1 µM (active).
Regarding `Cc1cnc(C)c(N2CCN(Cc3nc(-c4cccc(F)c4F)oc3C)CC2)n1`, the IC50 in experiment [4] is 15.1 µM (active).
As to `CC(C)OCCCNc1nc2c(-c3ccccc3)nnn2c2ccccc12`, the IC50 in experiment [3] was > 20 µM (inactive).
For the compound `O=C1/C(=C/C=C/c2ccccc2)Oc2c1ccc(O)c2CN1CCN(CCO)CC1`, in “cells”, the IC50 is 23.3 µM (active). For the same compound, the CC50 in [1] was > 40 µM (active).
Consider `Cc1ccccc1C1C2=C(O)c3ccccc3C2=Nc2nn(-c3ccccc3)c(O)c21` (configuration not stated), for which the half-maximal inhibitory concentration (IC50) on Aminopeptidase N is 40.4 µM (active).
Turning to `C=CC(=O)OCCCCCCOC(=O)C=C`, the AC50 on Cytochrome P450 3A4 [2] is 25.1 µM (inconclusive).
`CC(NC(=O)c1ccc(F)cc1)c1ccc2c(c1)CCCC2` (configuration not stated): the IC50 in [4] is 20.9 µM (active).
In the case of `COc1ccc(/C=C2/SC(=S)N(CC(=O)O)C2=O)cc1OCc1ccc(Cl)cc1`, the IC50 at Genome polyprotein is > 100 µM (active).
On to `O=C(COc1ccccc1/C=C\c1nc(O)c([N+](=O)[O-])c(O)n1)Nc1ccccc1`, for which the IC50 at Aminopeptidase N was 49 µM (active).
For `O=C(N/N=C/c1cccnc1)c1cc(-c2ccccc2OCc2ccccc2)[nH]n1`, the IC50 in experiment [6] is 53.1 µM (inactive); on Aminopeptidase N, 31.2 µM (active).
In the case of `CC(/C=C(\O)c1ccc(Br)cc1)=N/NC(=O)c1ccccc1`, the 50% cytotoxic concentration (CC50) in [1] is 22.2 µM (active).
As for `O=C(O)c1cccc(N2C(=O)C=CC2=O)c1`, the IC50 is 76.9 µM (active) on Genome polyprotein and > 80 µM (inactive) in experiment [7].
Regarding `CN1CCc2cc3c(cc2C(=O)Cc2ccc4c(c2C1)OCO4)OCO3`, the AC50 at Cytochrome P450 3A4 [2] was 25.1 µM (inconclusive).
As for `O=c1cc(-c2ccc(O)c(O)c2)oc2cc(O)cc(O)c12` [LUTEOLIN], the EC50 in [8] was 60.4 µM (active); in experiment [10] it was 31 µM (active). On Cytochrome P450 3A4 [9], the AC50 is 5.01 µM (inconclusive). Besides, the IC50 is 22.9 µM (active) at Aminopeptidase N and 11.9 µM (active) on Large T antigen.
